In one assay the target is Calcium Channel (Oryctolagus cuniculus, UniProt P15381). Nature of the assay: Calcium channel antagonism: relaxing action on extracted blood vessel (rabbit femoral artery, contracture by 50 mM KCl). The settings on record: 50 mM KCl contracture, 50% of maximum relaxing (0.1 mM papaverine). The procedure:
Calcium Channel Antagonism and […] Action (Relaxing Action on Extracted Blood Vessel)
Male rabbits weighing 2-3 kg (Rabiton, Japanese albino species) were anesthetized through intravenous administration of pentobarbital (50 mg/kg), and sacrificed by bloodletting through dissection of axillary artery. Femoral artery was extracted, connective tissue surrounding the artery was removed, and helical specimen was prepared. The specimen was suspended in an organ bath (20 cc) filled with 37° C. Krebs-Henseleit nutritious solution and bubbled with a 95% O2 +5% CO2 mixed gas. 1.5 g of resting tension was loaded on femoral artery. Isometric change of the tension of the specimen was recorded on a thermal recorder (Nippon Koden WT-685G) via F-D pickup Nippon Koden (TB611T) and Preamp (Nippon Koden). Ca-antagonism of a test compound was evaluated by observing relaxing action due to accumulative addition of the compound on the contracture caused by the application of 50 mM KCl. α-Blocking action was similarly evaluated by observing such relaxing action on the contracture caused by the application of 1 μM norepinephrine (NE). […] The concentration of a given compound, which is necessary for giving 50% of the maximum relaxing (IC50), was determined using the above system.

The test system of assay [1] is spontaneous hypertensive rats (SHR). The assay is described as follows: Action on blood pressure and heart rate of not-anesthetized SHR. It is filed as in vivo, rat (SHR). To be noted: 30 mg/kg PO, 2 and 4 hours after administration; for Antihypertensive action (%): decrease in SBP.
Description: Action of the compounds of the invention on blood pressure and heart rate of not-anesthetized spontaneous hypertensive rats (SHR)
Male Japanese Charles-River SHR (13-17 week old) were used in the experiment (S. Matsuda, J. Pharmacol. Method, 17 361, 1987). Systolic blood pressure (SBP) and heart rate of the animals were measured non-invasively (indirectly) using hemadynamometer for caudal artery pressure (6 channel type) before the administration of test compounds, at 2 and 4 hours after administration. Test compounds were dissolved in DMSO (100%) and orally administered. Decreased values in SBP and heart rate determined 2 and 4 hours after administration when compared with those determined before administration are shown in percentage (%) in the following table.
Another assay has as its system cultured cardiac cells. Nature of the assay: Anti-hypoxia action on cultured cardiac cells (inhibition of CPK leakage). The settings on record: Rattus norvegicus, read-out: Anti-hypoxia Activity (%), rate of inhibition on CPK leakage. It is filed as cell-based, rat (newborn Crj-SD). The procedure:
Anti-hypoxia action of the compounds of the present invention were investigated through studying their action in connection with the protection of cardiomuscular cells.
Primary culture of cardiac cells was prepared from newborn Crj-SD rats (2-3 day old) and used in the experiment. The primary culture was prepared according to the method described by Jones R. L. et al., Am. J. Pathol., 135, 541-556, 1989. Thus, cardiac cells were isolated from ventricle muscle using collagenase and pancreatin, and then the cardiac cells were separated and purified from cell debris, erythrocytes, and fibroblasts by means of Percoll density-gradient centrifugation. The cells were spread on a culture plate at a ratio of 2-3×10^5 cells/3.5 cm plate, and the cells were cultured for two days in Dulbecco's Modified Eagle's Medium (DMEM) containing 10% Fetal Bovine Serum (FBS) in an incubator (5% CO2 /95% Air) kept at 37° C. After sufficient growth of the cardiac cells, the culture medium was changed to DMEM free from FBS, and the culture was continued additional one day. The cells thus obtained were used in the experiment.
Hypoxia was generated using Gas Pak™ Anaerobic Chamber (BBL) which produces hypoxia by capturing residual O2 and changing it into H2 0 by the action of a H2 /CO2 generating bag and catalyst. The cardiac cell plate, wherein the culture medium had been changed to DMEM which is free from FBS and glucose, was set in the chamber, and the chamber was placed in an incubator. Anti-hypoxia activity of test compounds was determined by measuring inhibition rate of leakage of creatine phosphokinase activity into the culture medium.
The compounds tested were all dissolved in DMSO using HCO-50 as a solubilizing agent (DMSO:HCO-50=9:1), and directly charged onto the culture plate. The final concentrations of DMSO and HCO-50 in the culture medium were adjusted to 0.09% and 0.01% respectively. CPK activity was measured by colorimetry (Wako Kit) modified from Oliver method.
The numerical values in the table show cardiac cells-protecting activity of test compounds in terms of the rate (%) of inhibition on CPK leakage determined in connection with the test compounds when the amount of the CPK leakage for negative control (no addition of the test compounds) was defined as 100%.

In assay [2] the test system is cardiac muscle damage due to ischemia. The assay is described as follows: Anti-necrosis activity (left coronary ligation and reperfusion, CPK retention in left ventricle). It is filed as in vivo, rat (Wistar). To be noted: Rattus norvegicus. The procedure:
Male Sic Wistar rats weighing 200-250 g were anesthetized with urethane (1 g/kg), and ramus descendens of the left coronaria was ligated for 20 minutes and then reperfused according to the method described by Hock et al (Hock, […]., Am. Heart J., 109 222, 1985). […] For three hours after the reperfusion, the rats were subjected to heat insulation on a warming mat. After 120 minutes, the hearts were extracted, and the free walls of the left ventricles were frozen and storred until determination of CPK activity. CPK activity was determined according to the method of Bernauer, W. (Arch. int. Pharmacodyn., 231 90, 1978) after minor modification. Thus, the extracted tissue was homogenized in 10 volumes of 0.1M Tris/HCl (pH 7.5) containing 1 mM mercaptoethanol and centrifuged at 20,000 g for 20 minutes. The supernatant was used for determination of CPK activity, which was conducted using a commercially available kit (CPK-Test, Wako). CPK was determined using serum CPK as a standard and expressed with "U/mg protein". […] The degree of the inhibition was measured in terms of the CPK activity retained in the left ventricle. The test results are shown in Table 7, wherein percentage of the retention (%) at each dose was calculated based on the following equation.

Calcium Channel, sequence (P15381 whole entry): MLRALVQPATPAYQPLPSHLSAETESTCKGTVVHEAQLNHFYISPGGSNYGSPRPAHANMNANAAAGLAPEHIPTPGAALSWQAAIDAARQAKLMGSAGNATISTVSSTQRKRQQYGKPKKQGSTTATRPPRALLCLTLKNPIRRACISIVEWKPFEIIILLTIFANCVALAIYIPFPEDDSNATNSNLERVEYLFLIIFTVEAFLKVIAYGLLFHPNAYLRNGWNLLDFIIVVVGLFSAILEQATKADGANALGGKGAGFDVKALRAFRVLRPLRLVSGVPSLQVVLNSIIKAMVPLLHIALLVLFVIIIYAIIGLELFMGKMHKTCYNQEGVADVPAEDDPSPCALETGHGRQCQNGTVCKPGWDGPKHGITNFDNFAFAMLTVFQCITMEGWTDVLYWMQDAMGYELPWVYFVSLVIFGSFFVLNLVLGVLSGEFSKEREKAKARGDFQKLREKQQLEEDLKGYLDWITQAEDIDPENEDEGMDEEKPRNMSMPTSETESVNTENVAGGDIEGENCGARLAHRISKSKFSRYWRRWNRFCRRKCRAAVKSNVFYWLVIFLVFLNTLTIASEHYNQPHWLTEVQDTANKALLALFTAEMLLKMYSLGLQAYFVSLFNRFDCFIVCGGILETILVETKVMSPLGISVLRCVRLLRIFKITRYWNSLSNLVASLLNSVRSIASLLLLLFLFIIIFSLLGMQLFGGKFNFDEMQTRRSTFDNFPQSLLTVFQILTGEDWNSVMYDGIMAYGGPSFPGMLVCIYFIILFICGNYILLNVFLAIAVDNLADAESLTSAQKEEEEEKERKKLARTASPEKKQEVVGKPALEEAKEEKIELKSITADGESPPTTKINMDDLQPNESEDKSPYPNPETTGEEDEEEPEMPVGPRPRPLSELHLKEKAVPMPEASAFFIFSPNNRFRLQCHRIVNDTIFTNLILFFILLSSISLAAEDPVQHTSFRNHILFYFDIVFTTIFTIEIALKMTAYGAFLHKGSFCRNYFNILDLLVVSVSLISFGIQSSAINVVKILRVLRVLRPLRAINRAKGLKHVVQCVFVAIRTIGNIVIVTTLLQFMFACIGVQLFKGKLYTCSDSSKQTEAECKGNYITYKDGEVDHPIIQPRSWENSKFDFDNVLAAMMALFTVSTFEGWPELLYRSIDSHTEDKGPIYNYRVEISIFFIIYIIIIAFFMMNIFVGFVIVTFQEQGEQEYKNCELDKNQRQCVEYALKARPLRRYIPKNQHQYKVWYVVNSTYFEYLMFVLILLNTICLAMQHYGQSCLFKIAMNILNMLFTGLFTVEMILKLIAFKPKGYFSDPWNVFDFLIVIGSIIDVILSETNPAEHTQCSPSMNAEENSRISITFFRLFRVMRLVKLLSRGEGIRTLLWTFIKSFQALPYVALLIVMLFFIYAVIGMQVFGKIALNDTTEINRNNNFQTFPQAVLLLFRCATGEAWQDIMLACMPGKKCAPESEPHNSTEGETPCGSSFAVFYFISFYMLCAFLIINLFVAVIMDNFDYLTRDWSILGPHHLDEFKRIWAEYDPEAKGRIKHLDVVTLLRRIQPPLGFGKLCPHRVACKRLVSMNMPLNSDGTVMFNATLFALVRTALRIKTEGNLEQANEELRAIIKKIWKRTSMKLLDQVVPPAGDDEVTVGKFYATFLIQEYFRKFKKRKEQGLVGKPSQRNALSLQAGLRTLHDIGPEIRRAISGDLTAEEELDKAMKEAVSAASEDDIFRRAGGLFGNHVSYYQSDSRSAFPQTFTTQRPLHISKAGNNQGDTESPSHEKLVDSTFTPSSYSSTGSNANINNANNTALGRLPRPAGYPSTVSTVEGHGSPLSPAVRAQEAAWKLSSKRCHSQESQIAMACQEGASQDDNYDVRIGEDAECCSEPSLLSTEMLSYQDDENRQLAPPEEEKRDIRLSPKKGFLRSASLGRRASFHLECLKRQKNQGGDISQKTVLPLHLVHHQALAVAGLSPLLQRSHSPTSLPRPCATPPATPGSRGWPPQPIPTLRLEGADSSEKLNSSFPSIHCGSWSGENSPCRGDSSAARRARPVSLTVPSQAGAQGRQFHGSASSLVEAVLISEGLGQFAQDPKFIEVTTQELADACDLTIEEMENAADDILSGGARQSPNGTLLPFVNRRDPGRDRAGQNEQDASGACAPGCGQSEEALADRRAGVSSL
Calcium Channel, sequence (P13806 27-960 partner limits assumed): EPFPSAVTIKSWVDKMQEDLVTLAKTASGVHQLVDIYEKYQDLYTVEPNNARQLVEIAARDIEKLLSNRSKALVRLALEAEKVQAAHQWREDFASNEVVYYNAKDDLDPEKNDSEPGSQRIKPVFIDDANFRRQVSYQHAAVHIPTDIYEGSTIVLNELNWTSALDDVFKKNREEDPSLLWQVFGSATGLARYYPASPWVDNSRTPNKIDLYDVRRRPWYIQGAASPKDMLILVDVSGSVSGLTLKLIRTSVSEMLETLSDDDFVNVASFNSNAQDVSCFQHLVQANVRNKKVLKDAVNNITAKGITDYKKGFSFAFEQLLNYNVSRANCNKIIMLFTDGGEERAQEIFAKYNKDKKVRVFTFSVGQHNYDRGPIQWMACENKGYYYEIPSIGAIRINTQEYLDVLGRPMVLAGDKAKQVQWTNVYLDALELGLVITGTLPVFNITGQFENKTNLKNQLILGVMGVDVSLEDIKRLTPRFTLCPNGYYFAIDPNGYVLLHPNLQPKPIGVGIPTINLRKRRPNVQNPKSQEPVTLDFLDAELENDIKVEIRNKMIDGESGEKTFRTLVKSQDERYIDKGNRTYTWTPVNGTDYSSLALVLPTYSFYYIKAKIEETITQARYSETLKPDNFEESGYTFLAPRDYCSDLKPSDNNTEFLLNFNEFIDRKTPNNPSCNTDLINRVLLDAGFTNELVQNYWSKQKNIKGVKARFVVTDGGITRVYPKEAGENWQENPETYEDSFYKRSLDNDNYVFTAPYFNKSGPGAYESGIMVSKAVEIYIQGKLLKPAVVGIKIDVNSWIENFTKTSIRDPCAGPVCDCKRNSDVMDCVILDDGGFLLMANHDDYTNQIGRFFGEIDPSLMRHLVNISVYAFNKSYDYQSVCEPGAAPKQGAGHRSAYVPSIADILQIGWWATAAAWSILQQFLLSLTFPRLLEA
Calcium Channel, sequence (P13806 961-1106 partner limits assumed): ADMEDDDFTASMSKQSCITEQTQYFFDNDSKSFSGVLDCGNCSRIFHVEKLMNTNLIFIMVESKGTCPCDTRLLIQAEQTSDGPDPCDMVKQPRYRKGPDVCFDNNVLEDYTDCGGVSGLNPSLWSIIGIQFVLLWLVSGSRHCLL

As a reminder, the IC50 is the point on the concentration scale where inhibition reaches its midpoint. For orientation: inhibition means how much of the control response was suppressed. `COc1ccc([C@@H]2Sc3cc(Cl)ccc3N(CCCN3CCC(c4ccccc4)(c4ccccc4)CC3)C(=O)[C@@H]2OC(C)=O)cc1` (relative stereo) [Compound I-14, 3-Acetoxy-5-[3-(4,4-diphenyl-1piperizinyl)propyl]-2,3-dihydro-2-(4-methoxyphenyl)-8-chloro-1,5-benzothiazepin-4(5H)-one]: on Calcium Channel, the concentration for half-maximal inhibition (IC50) was 100 nM. In assay [1], the “Decrease of heart rate (%)” value was determined as 9.8% and the “Antihypertensive action (%)” value is given as 14%. Also, in the assay with cultured cardiac cells, the inhibition at 10 µM turned out to be 83.6%.

`COc1ccc([C@@H]2Sc3cc(Cl)ccc3N(CCCN3CCN(Cc4ccc5c(c4)OCO5)CC3)C(=O)[C@@H]2OC(C)=O)cc1` (relative stereo) [Compound I-5]: on Calcium Channel, the concentration for half-maximal inhibition (IC50) came out at 250 nM. For the same molecule, the inhibition at 10 µM with cultured cardiac cells was determined as 66%.

In the case of `COc1ccc([C@@H]2Sc3cc(Cl)ccc3N(CCCN3CCN(c4cc(OC)c(OC)c(OC)c4)CC3)C(=O)[C@@H]2OC(C)=O)cc1` [Compound I-32, (2S-cis)-3-Acetoxy-5-[3-(4-(3,4,5trimethoxyphenyl) - 1-piperazinyl)propyl]-2,3-dihydro-2-(4methoxyphenyl) -8-chloro-1,5-benzothiazepin-4 (5H)-one], the inhibition at 10 µM in the assay on cultured cardiac cells amounted to 66.1%.

On to `COc1ccc([C@@H]2Sc3cc(Cl)ccc3N(CCN3CCN(c4ccc(F)cc4)CC3)C(=O)[C@@H]2OC(C)=O)cc1` (relative stereo) [Compound I-13, 3-Acetoxy-5-[2-(4-(4-fluorophenyl)-piperazinyl)ethyl]-2,3-dihydro-2-(4-methoxyphenyl)-8-chloro-1,5-benzothiazepin-4(5H)-one], for which, in the assay with cultured cardiac cells, the inhibition at 1 µM is 15% and the inhibition at 10 µM was determined as 61%.

For the molecule `COc1ccc([C@@H]2Sc3cc(Cl)ccc3N(CCCCCN3CCN(c4ccccc4OC)CC3)C(=O)[C@@H]2OC(C)=O)cc1` [Compound I-34, (2S-cis)-3-Acetoxy-5-[5-(4-(2-methoxyphenyl)-1-piperazinyl)pentyl]-2,3-dihydro-2-(4-methoxyphenyl)-8-chloro-l,5-benzothiazepin-4(5H)-one], the inhibition at 10 µM with cultured cardiac cells was found to be 80%.

Regarding `COc1ccc([C@@H]2Sc3cc(Cl)ccc3N(CCCN3CCN(c4ccccc4)CC3)C(=O)[C@@H]2OC(C)=O)cc1` (relative stereo) [Compound I-1, 3-Acetoxy-5-[3-(4,phenyl-1-piperazinyl)propyl]-2,3-dihydro-2-(4-metoxyphenyl)-8-chloro-1,5-benzothiazepin-4(5H)-one], the inhibition at 10 µM in the assay on cultured cardiac cells is 66%.

Regarding `COc1ccc([C@@H]2Sc3cc(Cl)ccc3N(CCCN3CCN(C(=O)c4ccco4)CC3)C(=O)[C@@H]2OC(C)=O)cc1` (relative stereo) [Compound I-7, 3-Acetoxy-5-[3-(4-(2-furoyl)-1-piperazinyl)propyl]-2,3-dihydro-2-(4-methoxyphenyl)-8-chloro-1,5-benzothiazepin-4(5H)-one], the inhibition at 1 µM in the assay with cultured cardiac cells is 36%.

For `COc1ccc([C@@H]2Sc3cc(Cl)ccc3N(CCN3CCC(c4ccccc4)CC3)C(=O)[C@@H]2OC(C)=O)cc1` (relative stereo) [Compound I-11], the concentration for half-maximal inhibition (IC50) at Calcium Channel was 200 nM.

As for `COc1ccc([C@@H]2Sc3cc(Cl)ccc3N(CCCN3CCN(C(c4ccccc4)c4ccc(Cl)cc4)CC3)C(=O)[C@@H]2OC(C)=O)cc1` (relative stereo) [Compound I-16, 3-Acetoxy-5-[3-(4-(4-chlorobenzhydryl)-piperazinyl)propyl]-2,3-dihydro-2-(4-methoxyphenyl)-8-chloro-1,5-benzothiazepin-4(5H)-one], the half-inhibitory concentration (IC50) on Calcium Channel amounted to 240 nM. For the same molecule, in assay [1], the “Decrease of heart rate (%)” value was 15% and the “Antihypertensive action (%)” value is 19%. Besides, in the assay on cultured cardiac cells, the inhibition at 1 µM was found to be 18.4% and the inhibition at 10 µM was found to be 57%.

Broadly, the inhibition in vivo is the share of the control response that was lost under treatment. A lower inhibition in vivo goes with a response near the control. `COc1ccc([C@@H]2Sc3cc(Cl)ccc3N(CCCN3CCN(c4ccc(F)cc4)CC3)C(=O)[C@@H]2OC(C)=O)cc1` (relative stereo) [Compound I-12, 3-Acetoxy-5-[3-(4-(4-fluorophenyl)-piperazinyl)propyl]-2,3-dihydro-2-(4-methoxyphenyl)-8-chloro-1,5-benzothiazepin-4(5H)-one]: testing at 1 mg/kg in assay [2] (1 mg/kg iv) gave an inhibition in vivo of 23%. In the assay with cultured cardiac cells, the inhibition at 1 µM was 10% and the inhibition at 10 µM turned out to be 87%.

As for `COc1ccc([C@@H]2Sc3cc(Cl)ccc3N(CCCCN3CCN(c4ccccc4OC)CC3)C(=O)[C@@H]2OC(C)=O)cc1` [Compound I-33, (2S-cis)-3-Acetoxy-5-[4-(4-(2-methoxyphenyl)-1-piperazinyl)butyl]-2,3-dihydro-2-(4-methoxyphenyl)-8-chloro-1,5-benzothiazepin-4(5H)-one], in the assay on cultured cardiac cells, the inhibition at 1 µM worked out at 36.9% and the inhibition at 10 µM came out at 87%.

Consider `COc1ccc([C@@H]2Sc3cc(Cl)ccc3N(CCCN3CCN(c4ccc(Cl)cc4)CC3)C(=O)[C@@H]2OC(C)=O)cc1` [Compound I-25, (2S-cis)-3-Acetoxy-5-[3-(4-(4-chlorophenyl)-1-piperazinyl)propyl]-2,3-dihydro-2-(4-methoxyphenyl)-8-chloro-l,5-benzothiazepin-4(5H)-one], for which, in the assay with cultured cardiac cells, the inhibition at 1 µM stood at 25.2% and the inhibition at 10 µM is 89%.

For the molecule `COc1ccc([C@@H]2Sc3cc(Cl)ccc3N(CCCN3CCN(c4ccc(OC)cc4)CC3)C(=O)[C@@H]2OC(C)=O)cc1` [Compound I-29, (2S-cis)-3-Acetoxy-5-[3-(4-(4methoxyphenyl) -1-piperazinyl)propyl]methoxyphenyl-8-chloro-1,5-benzothiazepin-4(5H)-one], in the assay on cultured cardiac cells, the inhibition at 1 µM worked out at 30%.

With `COc1ccc([C@@H]2Sc3cc(Cl)ccc3N(CCCN3CCN(c4ccccn4)CC3)C(=O)[C@@H]2OC(C)=O)cc1` (relative stereo) [Compound I-3, 3-Acetoxy-5-[3-(4-(2-piridyl)1-piperazinyl)propyl]-2,3-dihydro-2-(4-methoxyphenyl)-8-chloro-1,5-benzothiazepin-4(5H)-one], the inhibition at 1 µM in the assay on cultured cardiac cells was 34%.

In the case of `COc1ccc([C@@H]2Sc3cc(Cl)ccc3N(CCCN3CCN(C(c4ccc(Cl)cc4)c4ccc(Cl)cc4)CC3)C(=O)[C@@H]2OC(C)=O)cc1` [Compound I-24, (2S-cis)-3-Acetoxy-5-[3-(4-(4-dichlorobenzhydryl)-1-piperazinyl)propyl]-2,3-dihydro-2-(4-methoxyphenyl)-8-chloro-l,5-benzothiazepin-4(5H)-one], in assay [2] (0.3 mg/kg iv), the inhibition in vivo at 0.3 mg/kg was determined as 35%. Besides, in the assay on cultured cardiac cells, the inhibition at 1 µM came out at 14.1% and the inhibition at 10 µM is 88%.
